Experimental data taken from ChEMBL document CHEMBL4428048, “Discovery of Novel Polo-Like Kinase 1 Polo-Box Domain Inhibitors to Induce Mitotic Arrest in Tumor Cells” (J Med Chem, 2016).
Activity calls are given as the source filed them. The rule behind the calls is not given here.

Legend:
HeLa [1] = assay: Induction of mitotic arrest in human HeLa cells assessed as increase in level of 4N DNA cells after 24 hrs by propidium iodide staining-based FACS analysis; assay type: functional, cell-based
RKO [2] = assay: Growth inhibition of human RKO cells at 50 uM after 72 hrs by MTT assay relative to control; assay type: functional; settings: read-out: GI
U2OS [3] = assay: Growth inhibition of human U2OS cells at 50 uM after 72 hrs by MTT assay relative to control; assay type: functional; settings: read-out: GI
HeLa [4] = assay: Induction of mitotic arrest in human HeLa cells assessed as increase in level of 4N DNA cells at 10 uM after 24 hrs by propidium iodide staining-based FACS analysis; assay type: functional, cell-based
HeLa [5] = assay: cells; settings: Homo sapiens, 72 h
Description: Growth inhibition of human HeLa cells after 72 hrs by MTT assay

[6] = molecular target: Serine/threonine-protein kinase PLK2 (Homo sapiens, UniProt Q9NYY3); assay: Binding affinity to GST-tagged PLK2 PBD (355 to 685 residues) (unknown origin) by NT-647 dye-based microscale thermophoresis analysis
HeLa [7] = assay: Growth inhibition of human HeLa cells at 50 uM after 72 hrs by MTT assay relative to control; assay type: functional; settings: read-out: GI
HeLa [8] = assay: Induction of mitotic arrest in human HeLa cells assessed as increase in level of 4N DNA cells at 30 uM after 24 hrs by propidium iodide staining-based FACS analysis; assay type: functional, cell-based
RKO [9] = assay: cells; settings: Homo sapiens, 72 h
Description: Growth inhibition of human RKO cells after 72 hrs by MTT assay

U2OS [10] = assay: cells; settings: Homo sapiens, 72 h
Description: Growth inhibition of human U2OS cells after 72 hrs by MTT assay

[11] = molecular target: Serine/threonine-protein kinase PLK1 (Homo sapiens, UniProt P53350); assay: Binding affinity to GST-tagged PLK1 PBD (327 to 603 residues) (unknown origin) by NT-647 dye-based microscale thermophoresis analysis
[12] = molecular target: Serine/threonine-protein kinase PLK1 (Homo sapiens, UniProt P53350, W414A); assay: Binding affinity to GST-tagged PLK1 PBD W414A mutant (unknown origin) by NT-647 dye-based microscale thermophoresis analysis
HeLa [13] = assay: Growth inhibition of human HeLa cells at 100 uM after 72 hrs by MTT assay relative to control; assay type: functional; settings: read-out: GI
RKO [14] = assay: Growth inhibition of human RKO cells at 100 uM after 72 hrs by MTT assay relative to control; assay type: functional; settings: read-out: GI
RKO [15] = assay: Growth inhibition of human RKO cells at 20 uM after 72 hrs by MTT assay relative to control; assay type: functional; settings: read-out: GI
U2OS [16] = assay: Growth inhibition of human U2OS cells at 20 uM after 72 hrs by MTT assay relative to control; assay type: functional; settings: read-out: GI
HeLa [17] = assay: Induction of mitotic arrest in human HeLa cells assessed as increase in level of 4N DNA cells at 5 uM after 24 hrs by propidium iodide staining-based FACS analysis; assay type: functional, cell-based
HeLa [18] = assay: Induction of mitotic arrest in human HeLa cells assessed as 4N DNA cells at 100 uM after 24 hrs by propidium iodide staining-based FACS analysis relative to control; assay type: functional
HeLa [19] = assay: Induction of mitotic arrest in human HeLa cells by propidium iodide staining-based FACS analysis; assay type: functional, cell-based
HeLa [20] = assay: Induction of mitotic arrest in human HeLa cells assessed as increase in level of 4N DNA cells at 40 uM after 24 hrs by propidium iodide staining-based FACS analysis; assay type: functional, cell-based
U2OS [21] = assay: Growth inhibition of human U2OS cells at 100 uM after 72 hrs by MTT assay relative to control; assay type: functional; settings: read-out: GI

Serine/threonine-protein kinase PLK2, sequence (Q9NYY3 whole entry, the tested form may be a part): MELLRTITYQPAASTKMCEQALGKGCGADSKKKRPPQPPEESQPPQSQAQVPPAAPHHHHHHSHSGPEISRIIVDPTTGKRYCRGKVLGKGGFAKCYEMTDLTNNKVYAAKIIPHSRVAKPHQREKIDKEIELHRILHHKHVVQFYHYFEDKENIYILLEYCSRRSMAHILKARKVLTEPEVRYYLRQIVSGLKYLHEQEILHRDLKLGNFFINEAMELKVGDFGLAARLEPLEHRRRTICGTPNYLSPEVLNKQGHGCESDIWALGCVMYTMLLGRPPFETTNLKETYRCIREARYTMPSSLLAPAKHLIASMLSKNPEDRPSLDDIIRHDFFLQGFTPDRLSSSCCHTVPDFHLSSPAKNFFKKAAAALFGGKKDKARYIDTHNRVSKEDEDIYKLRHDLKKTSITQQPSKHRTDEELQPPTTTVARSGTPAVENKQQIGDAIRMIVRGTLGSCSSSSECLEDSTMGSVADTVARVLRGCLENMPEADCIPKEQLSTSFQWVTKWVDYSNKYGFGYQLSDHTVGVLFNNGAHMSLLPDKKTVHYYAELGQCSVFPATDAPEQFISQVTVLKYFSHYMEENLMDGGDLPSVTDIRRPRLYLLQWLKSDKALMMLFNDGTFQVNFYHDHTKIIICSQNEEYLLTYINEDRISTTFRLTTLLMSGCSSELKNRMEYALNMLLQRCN
Serine/threonine-protein kinase PLK1 (Homo sapiens, UniProt P53350, W414A), sequence (P53350 2-603 W414A limits assumed): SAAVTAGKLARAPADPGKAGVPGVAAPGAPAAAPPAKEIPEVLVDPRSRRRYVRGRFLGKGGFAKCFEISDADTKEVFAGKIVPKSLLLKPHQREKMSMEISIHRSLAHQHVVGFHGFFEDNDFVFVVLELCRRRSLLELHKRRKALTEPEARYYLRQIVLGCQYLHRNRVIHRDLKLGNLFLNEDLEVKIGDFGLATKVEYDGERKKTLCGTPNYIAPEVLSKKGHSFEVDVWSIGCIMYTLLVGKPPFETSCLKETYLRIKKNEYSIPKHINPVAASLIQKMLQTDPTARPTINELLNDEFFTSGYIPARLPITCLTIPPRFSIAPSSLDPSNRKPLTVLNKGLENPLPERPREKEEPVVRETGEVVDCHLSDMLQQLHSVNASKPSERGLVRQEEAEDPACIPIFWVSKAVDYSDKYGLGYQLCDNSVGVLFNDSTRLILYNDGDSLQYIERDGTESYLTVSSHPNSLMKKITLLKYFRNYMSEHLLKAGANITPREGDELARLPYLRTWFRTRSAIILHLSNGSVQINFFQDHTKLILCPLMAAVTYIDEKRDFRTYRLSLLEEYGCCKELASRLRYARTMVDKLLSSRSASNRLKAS
Serine/threonine-protein kinase PLK1 (Homo sapiens, UniProt P53350), sequence (P53350 whole entry, the tested form may be a part): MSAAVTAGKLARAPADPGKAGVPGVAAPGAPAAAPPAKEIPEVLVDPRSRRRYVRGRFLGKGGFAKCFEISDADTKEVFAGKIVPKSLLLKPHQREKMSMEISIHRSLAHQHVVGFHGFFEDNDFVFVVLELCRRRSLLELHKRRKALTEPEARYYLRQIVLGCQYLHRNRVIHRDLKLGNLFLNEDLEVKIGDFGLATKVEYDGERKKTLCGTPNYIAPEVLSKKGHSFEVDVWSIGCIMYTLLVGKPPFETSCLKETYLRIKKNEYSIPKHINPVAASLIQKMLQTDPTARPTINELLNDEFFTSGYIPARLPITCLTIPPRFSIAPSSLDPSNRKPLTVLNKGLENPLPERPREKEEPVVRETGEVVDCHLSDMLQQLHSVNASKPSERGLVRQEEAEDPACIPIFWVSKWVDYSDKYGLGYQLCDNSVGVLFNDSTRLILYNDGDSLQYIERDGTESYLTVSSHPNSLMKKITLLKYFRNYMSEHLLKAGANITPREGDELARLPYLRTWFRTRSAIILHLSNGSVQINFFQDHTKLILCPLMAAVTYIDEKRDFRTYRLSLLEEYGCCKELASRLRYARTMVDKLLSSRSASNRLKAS

`CCn1c2ccccc2c2cc(/C=N/NC(=O)c3ccccc3[N+](=O)[O-])ccc21` gave an EC50 (HeLa [1]) of 5.3 µM, an inhibition of growth at 50 µM (RKO [2]) of 43% and an inhibition of growth at 50 µM (U2OS [3]) of 41.7%. For the same compound, the Activity (HeLa [4]) was “Active” and the EC50 (HeLa [5]) was 15 µM.
Work on `O=C(CCn1c2ccccc2c2ccccc21)N/N=C/c1cc(Cl)cc(Cl)c1` yielded an EC50 (HeLa [1]) of 20.4 µM, a Kd [6] of 210 µM and an inhibition of growth at 50 µM (HeLa [7]) of 45.7%. The inhibition of growth at 50 µM (U2OS [3]) was 48.8%, the Activity (HeLa [8]) was “Active” and the EC50 (RKO [9]) was 19.2 µM.
`CCN(CC)c1ccc(NC(=O)/C=C/c2cccc3ccccc23)cc1` was tested, and the inhibition of growth at 50 µM (HeLa [7]) was 31.2%, the inhibition of growth at 50 µM (RKO [2]) was 34% and the Activity (HeLa [8]) was “Active”. For the same compound, the EC50 (U2OS [10]) was 18.1 µM.
With `CCc1ccc(/C=N/NC(=O)c2sc3cc(Cl)ccc3c2Cl)s1` the EC50 (HeLa [1]) was 8.6 µM and the Activity (HeLa [8]) was “Active”.
With `CCn1c2ccccc2c2cc(/C=N/NC(=O)c3cccc(Cl)c3)ccc21` the EC50 (HeLa [1]) was 4.4 µM, the inhibition of growth at 50 µM (U2OS [3]) was 42.2% and the Activity (HeLa [4]) was “Active”. The EC50 (HeLa [5]) was 15.6 µM and the EC50 (RKO [9]) was 10 µM.
In the case of `Cc1ccc(/C(=N/S(=O)(=O)c2ccccc2)NC(=S)Nc2ccc([N+](=O)[O-])cc2)cc1`, the Activity (HeLa [1]) is reported as “Dose-dependent effect”, the EC50 (HeLa [1]) is reported as 21.1 µM and the Kd [6] is reported as 159 µM. For the same compound, the Activity (HeLa [8]) was “Active”.
`Cc1ccccc1OCC(=O)N/N=C/c1ccc2c(c1)OCCO2` was tested, and the EC50 (HeLa [1]) was 25.6 µM, the Kd [11] was 44.2 µM and the Kd [6] was 197 µM. It also gave a Kd [12] of 412 µM, an inhibition of growth at 100 µM (HeLa [13]) of 40.2% and an inhibition of growth at 100 µM (RKO [14]) of 35.3%. The Activity (HeLa [8]) was “Active” and the EC50 (U2OS [10]) was 37.8 µM.
In the case of `O=C(N/N=C/c1ccc(Br)cc1)c1n[nH]c2c1CCCC2`, the inhibition of growth at 20 µM (RKO [15]) is reported as 37%, the inhibition of growth at 20 µM (U2OS [16]) is reported as 59.8% and the Activity (HeLa [17]) is reported as “Active”. For the same compound, the EC50 (HeLa [5]) was 2.6 µM.
With `CC1=CC(=O)C(C(C)C)=C/C1=N/OC(=O)c1ccccc1C` the Kd [6] was 87.3 µM and the Activity (HeLa [18]) was 36%.
`CC1=C/C(=N/OC(=O)c2ccccc2C)C(C)=CC1=O` showed an EC50 (HeLa [19]) of 15 µM.
`CCCc1oc2ccc(NS(=O)(=O)c3cccs3)cc2c1C(=O)OCC` showed an EC50 (HeLa [1]) of 44.8 µM, an inhibition of growth at 50 µM (HeLa [7]) of 31.8% and an inhibition of growth at 50 µM (RKO [2]) of 39.4%. The Activity (HeLa [20]) was “Active”.
In the case of `Cc1ccc2nc(C)cc(SCC(=O)N/N=C/c3ccc(Cl)cc3)c2c1`, the EC50 (HeLa [1]) is reported as 18.7 µM, the inhibition of growth at 100 µM (HeLa [13]) is reported as 36.7% and the inhibition of growth at 100 µM (RKO [14]) is reported as 34%. The inhibition of growth at 100 µM (U2OS [21]) was 25.5% and the Activity (HeLa [8]) was “Active”.
